Laboratory results: PubChem BioAssay AID248 (DTP/NCI, 2004)
“And” between values parts separate entries of the source, which are not always exact repeats. Equal entries are not always repeated. Inconclusive results and toxic doses are left out. No stated cut-off is given here; in the data, active means T/C of 150% or more; inactive means T/C below 125%.

Test system: L1210 leukemia ip in BDF1 mice, survival T/C
Assay: NCI In Vivo Anticancer Drug Screen. Data for tumor model L1210 Leukemia (intraperitoneal) in B6D2F1 (BDF1) mice
Conditions: endpoint: mean survival time, higher = longer survival
In short: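 Transplanted-tumor mice were given test agent; controls received vehicle only. Survival readings from the two groups were divided (treated over control).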

[1] = dose: 100.0 mg/kg/injection, schedule: Q04DX003 (ip), vehicle: Klucel (hydroxypropylcellulose) (HPC)
[2] = dose: 200.0 mg/kg/injection, schedule: Q04DX003 (ip), vehicle: Klucel (hydroxypropylcellulose) (HPC)
[3] = dose: 400.0 mg/kg/injection, schedule: Q04DX003 (ip), vehicle: Klucel (hydroxypropylcellulose) (HPC)
[4] = dose: 100.0 mg/kg/injection, schedule: Q04DX002 (ip), vehicle: saline with Tween-80
[5] = dose: 100.0 mg/kg/injection, schedule: Q04DX002 (ip), vehicle: Klucel (hydroxypropylcellulose) (HPC)
[6] = dose: 200.0 mg/kg/injection, schedule: Q04DX002 (ip), vehicle: Klucel (hydroxypropylcellulose) (HPC)
[7] = dose: 400.0 mg/kg/injection, schedule: Q04DX002 (ip), vehicle: Klucel (hydroxypropylcellulose) (HPC)
[8] = dose: 100.0 mg/kg/injection, schedule: Q01DX001 (ip), vehicle: saline
[9] = dose: 200.0 mg/kg/injection, schedule: Q01DX001 (ip), vehicle: saline
[10] = dose: 400.0 mg/kg/injection, schedule: Q01DX001 (ip), vehicle: saline

Measured: T/C

Nc1ccc(C(=O)O)cc1
inactive: [1] 96 % of control | [2] 106 % of control | [3] 113 % of control

Cc1ccc(-n2c(=O)c(N=Nc3ccc(Br)cc3)c(O)n(-c3ccccc3Cl)c2=S)cc1
inactive: dose: 37.5 mg/kg/injection, schedule: Q01DX001 (ip), vehicle: Klucel (hydroxypropylcellulose) (HPC) 107 % of control | dose: 75.0 mg/kg/injection, schedule: Q01DX001 (ip), vehicle: Klucel (hydroxypropylcellulose) (HPC) 110 % of control | dose: 150.0 mg/kg/injection, schedule: Q01DX001 (ip), vehicle: Klucel (hydroxypropylcellulose) (HPC) 104 % of control

Cc1ccc(SSc2ccc(C)cc2)cc1
inactive: dose: 75.0 mg/kg/injection, schedule: Q01DX009 (ip), vehicle: saline 108 % of control | dose: 100.0 mg/kg/injection, schedule: Q04DX003 (ip), vehicle: saline 101 % of control | dose: 200.0 mg/kg/injection, schedule: Q04DX003 (ip), vehicle: saline 103 % of control | dose: 400.0 mg/kg/injection, schedule: Q04DX003 (ip), vehicle: saline 88 % of control

[Cl][Sb]([Cl])([c]1ccccc1)([c]1ccccc1)[c]1ccccc1
inactive: dose: 12.5 mg/kg/injection, schedule: Q01DX009 (ip), vehicle: Klucel (hydroxypropylcellulose) (HPC) 95 % of control | dose: 25.0 mg/kg/injection, schedule: Q01DX009 (ip), vehicle: Klucel (hydroxypropylcellulose) (HPC) 93 % of control | dose: 25.0 mg/kg/injection, schedule: Q04DX002 (ip), vehicle: saline with Tween-80 93 % of control | dose: 50.0 mg/kg/injection, schedule: Q01DX001 (ip), vehicle: carboxymethylcellulose (CMC) 96 % of control | dose: 50.0 mg/kg/injection, schedule: Q01DX009 (ip), vehicle: Klucel (hydroxypropylcellulose) (HPC) 102 % of control and 91 % of control | dose: 50.0 mg/kg/injection, schedule: Q04DX002 (ip), vehicle: saline with Tween-80 97 % of control | dose: 100.0 mg/kg/injection, schedule: Q01DX001 (ip), vehicle: carboxymethylcellulose (CMC) 96 % of control | [4] 101 % of control | [1] 102 % of control | dose: 200.0 mg/kg/injection, schedule: Q01DX001 (ip), vehicle: carboxymethylcellulose (CMC) 114 % of control | [2] 96 % of control | dose: 400.0 mg/kg/injection, schedule: Q01DX001 (ip), vehicle: carboxymethylcellulose (CMC) 93 % of control | [3] 105 % of control

Cc1nonc1C(N)=O
inactive: [5] 109 % of control | [6] 102 % of control | [7] 95 % of control

COc1ccc(C(CCl)(CCl)c2ccc(OC)cc2)cc1
inactive: dose: 100.0 mg/kg/injection, schedule: Q01DX009 (ip), vehicle: gum acacia 110 % of control | dose: 100.0 mg/kg/injection, schedule: Q04DX003 (ip), vehicle: gum acacia 92 % of control | dose: 200.0 mg/kg/injection, schedule: Q01DX009 (ip), vehicle: gum acacia 98 % of control | dose: 200.0 mg/kg/injection, schedule: Q04DX003 (ip), vehicle: gum acacia 101 % of control | dose: 400.0 mg/kg/injection, schedule: Q01DX009 (ip), vehicle: gum acacia 93 % of control | dose: 400.0 mg/kg/injection, schedule: Q04DX003 (ip), vehicle: gum acacia 103 % of control

N/C(=N\N=C\c1c(F)c(F)c(F)c(F)c1F)N[N+](=O)[O-]
inactive: dose: 100.0 mg/kg/injection, schedule: Q01DX009 (ip), vehicle: saline with Tween-80 102 % of control | dose: 200.0 mg/kg/injection, schedule: Q01DX009 (ip), vehicle: saline with Tween-80 97 % of control | dose: 400.0 mg/kg/injection, schedule: Q01DX009 (ip), vehicle: saline with Tween-80 94 % of control

COc1ccc(C(=O)/C=C/c2ccc(O)cc2)cc1
inactive: dose: 75.0 mg/kg/injection, schedule: Q04DX003 (ip), vehicle: saline 100 % of control | dose: 150.0 mg/kg/injection, schedule: Q04DX003 (ip), vehicle: saline 96 % of control | dose: 300.0 mg/kg/injection, schedule: Q04DX003 (ip), vehicle: saline 93 % of control

CSc1ccc(NC(=O)c2cccc([N+](=O)[O-])c2C(=O)O)cc1
inactive: dose: 100.0 mg/kg/injection, schedule: Q04DX002 (ip), vehicle: saline 106 % of control | dose: 200.0 mg/kg/injection, schedule: Q04DX002 (ip), vehicle: saline 110 % of control | dose: 400.0 mg/kg/injection, schedule: Q04DX002 (ip), vehicle: saline 106 % of control

CC1CN=C(c2ccc(NC(=O)NCCCCCCCCCCCCNC(=O)Nc3ccc(C4=NCC(C)N4)cc3)cc2)N1 (configuration not stated)
inactive: dose: 12.5 mg/kg/injection, schedule: Q01DX Z (ip), vehicle: carboxymethylcellulose (CMC) 95 % of control | dose: 125.0 mg/kg/injection, schedule: Q01DX Z (ip), vehicle: carboxymethylcellulose (CMC) 104 % of control

O=C(Nc1cccc(Cl)c1)Oc1cccc2c1CCC2
inactive: dose: 100.0 mg/kg/injection, schedule: Q04DX002 (sc), vehicle: olive oil, sesame oil, peanut oil 97 % of control | dose: 200.0 mg/kg/injection, schedule: Q04DX002 (sc), vehicle: olive oil, sesame oil, peanut oil 94 % of control | dose: 400.0 mg/kg/injection, schedule: Q04DX002 (sc), vehicle: olive oil, sesame oil, peanut oil 102 % of control

CC1(C)Cc2cccc(OC(N)=O)c2O1
inactive: dose: 1.56 mg/kg/injection, schedule: Q04DX003 (ip), vehicle: Klucel (hydroxypropylcellulose) (HPC) 94 % of control | dose: 3.13 mg/kg/injection, schedule: Q04DX003 (ip), vehicle: Klucel (hydroxypropylcellulose) (HPC) 103 % of control | dose: 6.25 mg/kg/injection, schedule: Q04DX003 (ip), vehicle: Klucel (hydroxypropylcellulose) (HPC) 104 % of control

COc1c(CO)cc(C)cc1CO
inactive: dose: 87.5 mg/kg/injection, schedule: Q04DX003 (ip), vehicle: saline with Tween-80 101 % of control | dose: 175.0 mg/kg/injection, schedule: Q04DX003 (ip), vehicle: saline with Tween-80 124 % of control | dose: 350.0 mg/kg/injection, schedule: Q04DX003 (ip), vehicle: saline with Tween-80 101 % of control

O=C(/C=C/C(=O)Oc1c(Cl)c(Cl)c(Cl)c(Cl)c1Cl)Oc1c(Cl)c(Cl)c(Cl)c(Cl)c1Cl
inactive: dose: 100.0 mg/kg/injection, schedule: Q01DX009 (ip), vehicle: Klucel (hydroxypropylcellulose) (HPC) 100 % of control | [1] 111 % of control | dose: 200.0 mg/kg/injection, schedule: Q01DX009 (ip), vehicle: Klucel (hydroxypropylcellulose) (HPC) 104 % of control | [2] 93 % of control | dose: 400.0 mg/kg/injection, schedule: Q01DX009 (ip), vehicle: Klucel (hydroxypropylcellulose) (HPC) 100 % of control | [3] 105 % of control

CC(=O)OCCc1ccc([N+](=O)[O-])cc1
inactive: [4] 97 % of control | dose: 200.0 mg/kg/injection, schedule: Q04DX002 (ip), vehicle: saline with Tween-80 93 % of control | dose: 400.0 mg/kg/injection, schedule: Q04DX002 (ip), vehicle: saline with Tween-80 97 % of control

CN(C)c1ccc(N=Nc2ccc(S(=O)(=O)O)cc2)cc1
inactive: [5] 92 % of control | [6] 103 % of control | [7] 92 % of control

OCc1ccn2c1C(O)CC2 (configuration not stated)
inactive: dose: 29.0 mg/kg/injection, schedule: Q01DX009 (ip), vehicle: saline 100 % of control | dose: 45.0 mg/kg/injection, schedule: Q01DX009 (ip), vehicle: saline 115 % of control | dose: 100.0 mg/kg/injection, schedule: Q04DX003 (ip), vehicle: saline with Tween-80 108 % of control | dose: 150.0 mg/kg/injection, schedule: Q01DX009 (ip), vehicle: saline 111 % of control | dose: 200.0 mg/kg/injection, schedule: Q04DX003 (ip), vehicle: saline with Tween-80 117 % of control | dose: 400.0 mg/kg/injection, schedule: Q04DX003 (ip), vehicle: saline with Tween-80 97 % of control

CCCCCCCC/C=C\CCCCCCCC(=O)O.[Fe]
inactive: [8] 93 % of control | [9] 95 % of control | [10] 90 % of control

O=S(=O)(Cc1ccccc1)C(Cl)c1ccccc1 (configuration not stated)
inactive: [8] 115 % of control | [9] 101 % of control | [10] 89 % of control

C[Se](=O)O
inactive: dose: 3.13 mg/kg/injection, schedule: Q01DX001 (ip), vehicle: saline 94 % of control | dose: 6.25 mg/kg/injection, schedule: Q01DX001 (ip), vehicle: saline 91 % of control | dose: 12.5 mg/kg/injection, schedule: Q01DX001 (ip), vehicle: saline 88 % of control

O=[N+]([O-])c1ccc(Cl)c(OCCOc2ccc(S(=O)(=O)F)cc2)c1
inactive: dose: 100.0 mg/kg/injection, schedule: Q01DX001 (ip), vehicle: saline with Tween-80 96 % of control | dose: 200.0 mg/kg/injection, schedule: Q01DX001 (ip), vehicle: saline with Tween-80 87 % of control | dose: 400.0 mg/kg/injection, schedule: Q01DX001 (ip), vehicle: saline with Tween-80 90 % of control
